The structures appear in SMILES notation. pIC50: −log10 of the molar value.

In general, IC50 refers to the point on the concentration scale where inhibition reaches its midpoint. What is called pIC50 is −log10 of the IC50, conventionally taken in molar units.

The first experiment relates to IL1-β release upon NLRP3 activation in peripheral blood mononuclear cells (PBMC). Kind of experiment: PBMC IC50 determination assay (IL1-β release, ELISA). As to conditions: Homo sapiens, PBMC, read-out: PBMCs, IC50, µM. The class given is cell-based. On the procedure: PBMC IC50 determination assay
The compounds of the present invention were tested for their inhibitory activity against IL1-β release upon NLRP3 activation in peripheral blood mononuclear cells (PBMC).
PBMC were isolated from buffy coats by density gradient centrifugation on Histopaque-1077 (Sigma, cat no. 10771). Isolated cells were seeded into the wells of a 96-well plate and incubated for 3 h with lipopolysaccharide (LPS). Following medium exchange, the compounds of the present invention were added (a single compound per well) and the cells were incubated for 30 min. Next, the cells were stimulated with nigericin (10 µM) for 1 h and the cell culture media from the wells were collected for further analysis.
The release of IL1-β into the media was determined by a quantitative detection of IL1-β in the media using an IL-1β enzyme-linked immunosorbent assay (ELISA) Ready-SET-Go!, eBioscience cat. No. 88-7261-88. Briefly, in a first step, high affinity binding plates (Coming, Costar 9018 or NUNC Maxisorp Cat No. 44-2404) were coated overnight at 4°C with specific capture antibody included in the kit (anti-human IL-1β ref. 14-7018-68). Subsequently, plates were blocked with blocking buffer for 1 h at room temperature (rt) and after washing with a buffer (PBS with 0,05% Tween-20) incubated with protein standard and culture media. After 2 h of incubation at rt, plates were washed and incubated with biotinylated detection antibody included in the kit (anti-human IL-1β Biotin ref. 33-7110-68) for 1 h at rt. Plates were washed and incubated with HRP-streptavidin for 30 min at rt and washed again. The signal was developed after addition of 3,39,5,59-tetramethylbenzidine-peroxidase (TMB) until color appeared and the reaction was stopped by 2 N H2SO4. A microplate spectrophotometer (BioTek) was used to detect signals with […]. The detection range of IL1-β ELISA was […].
On the technique in general: ELISA stands for enzyme-linked immunosorbent assay.
For `CC(=O)c1cn(S(=O)(=O)NC(=O)Nc2c3c(cc4c2CCC4)CCC3)cc1-c1ccccc1` [Example 1T, 3=[(3-acetyl-4-phenyl-1H-pyrrol-1-yl)sulfonyl]-1-(1,2,3,5,6,7-hexahydro-s-indacen-4-yl)-3-sodiourea propan-2-ol solvate], the IC50 is 4.76 µM. Regarding `O=C(Nc1c2c(cc3c1CCC3)CCC2)NS(=O)(=O)n1ccc2ncccc21` [Example 1D], the IC50 is 10.5 µM.

Take `O=C(Nc1c2c(cc3c1CCC3)CCC2)NS(=O)(=O)n1ccc([N+](=O)[O-])c1` [Example 1J]: the concentration for half-maximal inhibition (IC50) was determined as 26.8 µM. For `O=C(Nc1c2c(cc3c1CCC3)CCC2)NS(=O)(=O)n1ncc2ccccc21` [Example 1E], the half-maximal inhibitory concentration (IC50) was 1 µM. As to `O=C(Nc1c2c(cc3c1CCC3)CCC2)NS(=O)(=O)n1cccc1` [Example 1K], the 50% inhibitory concentration (IC50) is 1.4 µM. On the same count and under the same terms, next, `CC(=O)c1ccn(S(=O)(=O)NC(=O)Nc2c3c(cc4c2CCC4)CCC3)c1` [Example 1B]: 1.27 µM; `O=C(Nc1c2c(cc3c1CCC3)CCC2)NS(=O)(=O)n1cc2c(c1)C(=O)CC2` [Example 1O]: 4.13 µM; `CCC(=O)c1ccn(S(=O)(=O)NC(=O)Nc2c3c(cc4c2CCC4)CCC3)c1` [Example 1G]: 5 µM. The same measure, in the same setting: in the case of `O=C(Nc1c2c(cc3c1CCC3)CCCC2)NS(=O)(=O)n1ncc2ccccc21` [Example 1M] it was 4.62 µM; in that of `O=C(Nc1c2c(cc3c1CCC3)CCC2)NS(=O)(=O)n1ccc(C(=O)C(F)(F)F)c1` [Example 1L], 0.074 µM. For `O=C(Nc1cc2c(c3c1CCCC3)CCC2)NS(=O)(=O)n1ncc2ccccc21` [Example 1N, 3-{1H,2H,3H,6H,7H,8H,9H -cyclopenta[a]naphthalen-5-yl}-1-(H-indazole-1-sulfonyl)-1-sodiourea], the half-inhibitory concentration (IC50) is 2.03 µM.

Consider `O=C(Nc1c2c(cc3c1CCC3)CCC2)NS(=O)(=O)n1ccc2ccncc21` [Example 1H], for which the concentration for half-maximal inhibition (IC50) was 4.93 µM.

Regarding `CC(=O)c1ccn(S(=O)(=O)NC(=O)Nc2c3c(c(Cl)c4c2CCC4)CCC3)c1` [Example 1I], the half-inhibitory concentration (IC50) turned out to be 0.91 µM. For `O=C(Nc1c2c(cc3c1CCC3)CCC2)NS(=O)(=O)n1ccc2ccccc21` [Example 1A], the IC50 turned out to be 1.05 µM.

In the case of `CC(C)(O)c1ccn(S(=O)(=O)NC(=O)Nc2c3c(cc4c2CCC4)CCC3)c1` [Example 3A], the IC50 turned out to be 0.66 µM. With `COC(=O)c1ccn(S(=O)(=O)NC(=O)Nc2c3c(cc4c2CCC4)CCC3)c1` [Example 1C], the half-inhibitory concentration (IC50) worked out at 4.07 µM. `O=C(Nc1c2c(cc3c1CCC3)CCC2)NS(=O)(=O)n1ccc(C(=O)c2ccccc2)c1` [Example 1P]: the IC50 amounted to 2.91 µM.

For the molecule `O=C(Nc1c2c(cc3c1CCC3)CCC2)NS(=O)(=O)n1ccc(C2CC2)c1` [Example 1F], the IC50 came to 0.4 µM. On to `O=C(Nc1cc2c(c3c1CCC3)CCC2)NS(=O)(=O)n1ccc(C(=O)C(F)(F)F)c1` [Example 1Q], for which the IC50 came to 0.33 µM.

Still in this experiment, the particulars now being: Homo sapiens; PBMC primed 3 h with LPS, compound 30 min, nigericin (10 µM) 1 h; IL1-β in media by ELISA; values with * are mean values based on 2-6 measurements, all others single measurements; read-out: PBMCs, IC50.
As for `Cc1cccn1S(=O)(=O)NC(=O)Nc1c2c(cc3c1CCC3)CCC2` [Example 1S, ammonium [(1,2,3,5,6,7-hexahydro-s-indacen-4-yl)carbamoyl][(2-methyl-1H-pyrrol-1-yl)sulfonyl]azanide], the pIC50 was 6.57.

For the molecule `C=C(C)c1ccn(S(=O)(=O)NC(=O)Nc2c3c(cc4c2CCC4)CCC3)c1` [Example 4A, 3-(1,2,3,5,6,7-hexahydro-s-indacen-4-yl)-1-{[3-(prop-1-en-2-yl)-1H-pyrrol-1-yl]sulfonyl}urea], the pIC50 is 6.09. Consider `CC(O)c1ccn(S(=O)(=O)NC(=O)Nc2c3c(cc4c2CCC4)CCC3)c1` (stereo not shown) [Example 2A, 3-(1,2,3,5,6,7-hexahydro-s-indacen-4-yl)-1-{[3-(1-hydroxyethyl)-1H-pyrrol-1-yl]sulfonyl}urea], for which the pIC50 is 5.71. The same measure, in the same setting: in the case of `O=C(Nc1c2c(cc3c1CCC3)CCC2)NS(=O)(=O)n1cc2c(c1)C(=O)CCC2` [Example 1R, ammonium [(1,2,3,5,6,7-hexahydro-s-indacen-4-yl)carbamoyl][(4-oxo-4,5,6,7-tetrahydro-2H-isoindol-2-yl)sulfonyl]azanide] it was 5.90; in that of `O=C(Nc1cc2c(c3c1CCC3)CCC2=O)NS(=O)(=O)n1ccc(C(=O)C(F)(F)F)c1` [Example 1U, ammonium [(6-oxo-1,2,3,6,7,8-hexahydroas-indacen-4-yl)carbamoyl]({[3-(trifluoroacetyl)-1H-pyrrol-1-yl]sulfonyl})azanide], 5.74.

On to `O=C(Nc1c2c(cc3c1CCC3)CCC2)NS(=O)(=O)n1ccc(C(O)C(F)(F)F)c1` (stereo not shown) [Example 2B, 3-(1,2,3,5,6,7-hexahydro-s-indacen-4-yl)-1-{[3-(2,2,2-trifluoro-1-hydroxyethyl)-1H-pyrrol-1-yl]sulfonyl}urea], for which the pIC50 is 6.01.

Values taken from patent EP3272739A1 (NodThera Limited, priority 2016, dated 2018).
